Patent US20260070917A1, “CYCLIN DEPENDENT KINASE DEGRADERS AND METHODS OF USE THEREOF” (Differentiated Therapeutics Inc, priority 2023, published 2026)

Key:
Format in all cases: cell-based
CDK2 = molecular target: T1, CDK2 (Homo sapiens, UniProt P24941); assay: HiBit Assay Protocol for CDK2 (HIBIT protein quantification, degradation); settings: HEK293-CDK2-Hibit cells, compound treatment for 6 hours; for DC50: ABS DC50
T1 construct: host or cells: HEK293-CDK2-Hibit
Experimental: HiBit Assay Protocol for CDK2
• 1. The culture medium for HEK293-CDK2-Hibit cells was prepared using DMEM with 10% FBS. • 2. Cells were cultivated in T-75 flasks in a cell culture incubator set at 37° C., 5% CO2, 95% relative humidity. Cells were allowed to reach 80-90% confluence before detaching and splitting. • 3. Cultivated cells were rinsed in T-75 flasks with 5 mL PBS. Aspirate off Added was 1.5 mL trypsin, and the cells were incubated at 37° C. for approximately 5 minutes or until the cells detached and floated. • 4. Trypsin was inactivated by adding excess serum containing medium. • 5. Cells were harvested from flask into cell culture medium and then the cell number was counted. HEK293-CDK2-Hibit cells were seeded into 384-well plate (cell density: 1.6×10^5 cells/well/50 uL medium) in DMEM medium according to the plate map below and incubated overnight at 37° C. and 5% CO2. • Note: Cell Cultured Medium: 90% DMEM+10% FBS+1% Penicillin-Streptomycin Liquid
(§1) • 1. Test compounds were dissolved at 10 mM DMS stock solution. 45 uL of stock solution was transferred to a 384 pp-plate. A 3-fold, 10-point dilution was performed via transferring 15 uL compound into 30 uL DMSO by using TECAN liquid handler. • 2. The plates were spinned at room temperature at 1,000 RPM for 1 minute. • 3. 50 nL of diluted compound was transferred from compound source plate into the cell plate by Echo. • 4. After compound treatment for 6 hours, the plate was removed from incubators and equilibrated at room temperature for 15 minutes. The HiBit reagent was prepared, consisting of the following ratios: 10 mL of Nano-Glo®-HiBiT Lytic Buffer, 200 μL of Nano-Glo®-HiBiT Lytic Substrate and 100 uL of LgBiT Protein, mixed thoroughly. 20 μL of HiBit reagent was added into each well and the plates were spinned at room temperature at 1,000 RPM for 1 minute to be detected. Then the plates were shaken at 600 RPM at room temperature for 20 minutes, and read by EnVision. • 5. The inhibition activity was calculated following the formula below:
(§2) [formula] • Note: Where HC is obtained from cells treated with […] only; LC is obtained from culture medium only. • 6. ABS DC50 was calculated by fitting the Curve using Xlfit (v5.3.1.3), equation 201: […]

CCNE1 = molecular target: T2, CCNE1 (Homo sapiens, UniProt P24864); assay: HiBit Assay Protocol for CCNE1 (HIBIT protein quantification, degradation); settings: HEK293-CCNE1-Hibit cells, compound treatment for 6 hours
T2 construct: host or cells: HEK293-CCNE1-Hibit
T2 sequence (P24864 whole entry): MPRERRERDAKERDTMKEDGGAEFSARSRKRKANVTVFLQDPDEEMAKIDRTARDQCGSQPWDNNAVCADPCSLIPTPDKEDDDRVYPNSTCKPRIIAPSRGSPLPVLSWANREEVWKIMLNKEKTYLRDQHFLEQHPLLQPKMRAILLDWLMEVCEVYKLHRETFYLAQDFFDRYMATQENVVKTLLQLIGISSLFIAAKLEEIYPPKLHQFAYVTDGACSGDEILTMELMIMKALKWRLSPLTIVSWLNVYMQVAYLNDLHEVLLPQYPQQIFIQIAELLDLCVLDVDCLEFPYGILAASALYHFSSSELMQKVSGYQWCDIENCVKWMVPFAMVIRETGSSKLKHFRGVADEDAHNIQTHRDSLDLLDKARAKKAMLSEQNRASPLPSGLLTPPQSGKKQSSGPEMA
Experimental: HiBit Assay Protocol for CCNE1
• 1. The culture medium for HEK293-CCNE1-Hibit cell was prepared using EMEM with […]. • 2. Cells were cultivated in T-75 flasks in a cell culture incubator set at 37° C., 5% CO2, 95% relative humidity. Cells were allowed to reach 80-90% confluence before detaching and splitting. • 3. Cultivated cells were rinsed in T-75 flasks with 5 mL PBS. Aspirate off Added was 1.5 mL trypsin, and the cells were incubated at 37° C. for approximately 5 minutes or until the cells detached and floated. • 4. Trypsin was inactivated by adding excess serum containing medium. • 5. Cells were harvested from flask into cell culture medium and then the cell number was counted. HEK293-CCNE1-Hibit cell were seeded into 384-well plate (cell density: 1.6×10^5 cells/well/50 uL medium) in EMEM medium according to the plate map below and incubated overnight at 37° C. and […]. • Note: Cell Cultured Medium: 90% EMEM+10% FBS+1% Penicillin-Streptomycin Liquid
as §1, with “mM DMSO” for “mM DMS”, “45 μL” for “45 uL”, “100 μL” for “100 uL”, “Protein, mix” for “Protein, mixed”
as §2

CDK9 = molecular target: T3, CDK9 (Homo sapiens, UniProt P50750); assay: HiBit Assay Protocol for CDK9 (HIBIT protein quantification, degradation); settings: HEK293-CDK9-Hibit cells, compound treatment for 6 hours; for Dmax: 6 h, read-out: CDK9 HIBIT Protein Quantification Maximum
T3 construct: host or cells: HEK293-CDK9-Hibit
T3 sequence (P50750 whole entry): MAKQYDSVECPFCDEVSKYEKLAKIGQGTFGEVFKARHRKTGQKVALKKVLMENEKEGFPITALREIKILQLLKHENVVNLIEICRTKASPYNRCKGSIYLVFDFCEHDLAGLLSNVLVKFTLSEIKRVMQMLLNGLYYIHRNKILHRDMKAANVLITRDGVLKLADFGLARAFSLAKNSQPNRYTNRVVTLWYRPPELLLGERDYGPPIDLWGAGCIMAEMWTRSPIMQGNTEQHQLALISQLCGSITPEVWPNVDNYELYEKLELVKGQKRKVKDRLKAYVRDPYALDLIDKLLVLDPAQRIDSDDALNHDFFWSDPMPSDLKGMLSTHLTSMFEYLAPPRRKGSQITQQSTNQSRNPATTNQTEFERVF
Experimental: HiBit Assay Protocol for CDK9
• 1. The culture medium for HEK293-CDK9-Hibit cell was prepared using DMEM with 10% FBS. • 2. Cells were cultivated in T-75 flasks in a cell culture incubator set at 37° C., 5% CO2, 95% relative humidity. Cells were allowed to reach 80-90% confluence before detaching and splitting. • 3. Cultivated cells were rinsed in T-75 flasks with 5 mL PBS. Aspirated off. Added 1.5 mL trypsin, and incubated the cells at 37° C. for approximately 5 minutes or until the cells detached and floated. • 4. Trypsin was inactivated by adding excess serum containing medium. • 5. Cells were harvested from flask into cell culture medium and then the cell number was counted. HEK293-CDK9-Hibit cells were seeded into 384-well plate (cell density: 1.6×10^5 cells/well/50 uL medium) in DMEM medium according to the plate map below and were incubated overnight at 37° C. and 5% CO2. • Note: Cell Cultured Medium: 90% DMEM+10% FBS+1% Penicillin-Streptomycin Liquid
• 1. Test compounds were dissolved at 3 mM DMSO stock solution. Transferred 45 uL of stock solution to a 384 pp-plate. Perform 3-fold, 10-point dilution via transferring 15 uL compound into 30 uL DMSO by using TECAN liquid handler. • 2. The plates were spinned at room temperature at 1,000 RPM for 1 minute. • 3. Transferred 50 nL of diluted compound from compound source plate into the cell plate by Echo. • 4. After compound treatment for 6 hours, removed the plate from incubators and equilibrated at room temperature for 15 minutes. Prepared the HiBit reagent consists of the following ratios: 10 mL of Nano-Glo®-HiBiT Lytic Buffer, 200 uL of Nano-Glo®-HiBiT Lytic Substrate and 100 uL of LgBiT Protein, mixed thoroughly. Added 20 uL of HiBit reagent into each well and spinned the plates at room temperature at 1,000 RPM for 1 minute to be detected. Plates were then shaken at 600 RPM at room temperature for 20 minutes, and read by EnVision. • 5. The inhibition activity was calculated following the formula below:
[formula] • Note: Where HC was obtained from cells treated with 0.1% DMSO only; LC was obtained from culture medium only. • 6. The ABS DC50 was calculated by fitting the Curve using Xlfit (v5.3.1.3), equation 201: […]

| Structure (SMILES) | CDK2 HIBIT Protein Quantification Maximum (CDK2) [%] | DC50 (CDK2) [nM] | CCNE1 HIBIT Protein Quantification Maximum (CCNE1) [%] | CDK9 HIBIT Protein Quantification Maximum (CDK9) [%] | Dmax (CDK9) [%] |
| --- | --- | --- | --- | --- | --- |
| CC(c1cc(S(=O)(=O)N2CC[C@H](Nc3ncc4c(n3)N([C@@H]3CCC[C@@H](O)C3)C(=O)C43CC3)[C@H](F)C2)ccc1F)N1CCC(c2ccc3c(N4CCC(=O)NC4=O)nn(C)c3c2)CC1 (single isomer, unassigned) [Compound 201, 1-(6-{1-[(1R*)-1-{2-Fluoro-5-[(3R,4S)-3-fluoro-4-{7′-[(1R,3R)-3-hydroxycyclohexyl]-6′-oxospiro[cyclopropane-1,5′-pyrrolo[2,3-d]pyrimidin]-2′-ylamino}piperidin-1-ylsulfonyl]phenyl}ethyl]piperidin-4-yl}-1-methylindazol-3-yl)-1,3-diazinane-2,4-dione] | 88 | 5.66 | 47 | 23 |  |
| CC1CCCC1N1C(=O)C2(CC2)c2cnc(NC3CCN(S(=O)(=O)N4CCC(CN5CCC(c6cccc7c6n(C)c(=O)n7C6CCC(=O)NC6=O)CC5)CC4)CC3)nc21 (stereo not shown) [Compound 14, 3-(3-Methyl-4-{1-[(1-{4-[7′-(2-methylcyclopentyl)-6′-oxospiro[cyclopropane-1,5′-pyrrolo[2,3-d]pyrimidin]-2′-ylamino]piperidin-1-ylsulfonyl}piperidin-4-yl)methyl]piperidin-4-yl}-2-oxo-1,3-benzodiazol-1-yl)piperidine-2,6-dione] | 57.4 | 4.56 | 37.7 |  |  |
| CC1CCCC1N1C(=O)C2(CC2)c2cnc(NC3CCN(S(=O)(=O)N4CC5(CCN(C(=O)Cc6ccc7c(c6)n(C)c(=O)n7C6CCC(=O)NC6=O)CC5)C4)CC3)nc21 (stereo not shown) [Compound 54] | 14 |  |  |  | 4 |
| CC1CCCC1N1C(=O)C2(CC2)c2cnc(NC3CCN(S(=O)(=O)N4CC5C4CCN5C(=O)CCCCc4cccc5c4n(C)c(=O)n5C4CCC(=O)NC4=O)CC3)nc21 (stereo not shown) [Compound 98] | 31 |  |  |  | 15 |
| CC1CCCC1N1C(=O)C2(CC2)c2cnc(NC3CCN(S(=O)(=O)C4CCCN(C(=O)CCCCc5ccc6c(c5)n(C)c(=O)n6C5CCC(=O)NC5=O)C4)CC3)nc21 (stereo not shown) [Compound 115] | 23 |  |  |  | 7 |
| Cn1nc(N2CCC(=O)NC2=O)c2ccc(C3CCN(Cc4cccc(S(=O)(=O)N5CCC(Nc6ncc7c(n6)N([C@@H]6CCC[C@@H](O)C6)C(=O)C76CCC6)CC5)c4)CC3)cc21 [Compound 174, 1-[6-(1-{[3-(4-{7′-[(1R,3R)-3-Hydroxycyclohexyl]-6′-oxospiro[cyclobutane-1,5′-pyrrolo[2,3-d]pyrimidin]-2′-ylamino}piperidin-1-ylsulfonyl)phenyl]methyl}piperidin-4-yl)-1-methylindazol-3-yl]-1,3-diazinane-2,4-dione] | 82 | 3.58 | 47 |  |  |
| CC1CN(C(C)c2cccc(S(=O)(=O)N3CC[C@H](Nc4ncc5c(n4)N([C@@H]4CCC[C@@H](O)C4)C(=O)C54CC4)[C@H](F)C3)c2)CCC1c1ccc2c(N3CCC(=O)NC3=O)nn(C)c2c1 (stereo partly shown) [Compound 189] | 88 | 2.62 | 47 |  |  |
| CC(C)C1CC(c2ccc3c(N4CCC(=O)NC4=O)nn(C)c3c2)CCN1C(C)c1cccc(S(=O)(=O)N2CC[C@H](Nc3ncc4c(n3)N([C@@H]3CCC[C@@H](O)C3)C(=O)C43CC3)[C@H](F)C2)c1 (stereo partly shown) [Compound 190] | 70 | 13.6 | 27 |  |  |
| C[C@H](c1cccc(S(=O)(=O)N2CC[C@H](Nc3ncc4c(n3)N([C@@H]3CCC[C@@H](O)C3)C(=O)C43CC3)[C@H](F)C2)c1)N1CCN(c2ccc3c(N4CCC(=O)NC4=O)nn(C)c3c2)C[C@@H]1C [Compound 193] | 85 | 10.3 | 48 |  |  |
| C[C@H]1CN(c2ccc3c(N4CCC(=O)NC4=O)nn(C)c3c2)CCN1[C@@H](C)c1cccc(S(=O)(=O)N2CC[C@H](Nc3ncc4c(n3)N([C@@H]3CCC[C@@H](O)C3)C(=O)C43CC3)[C@H](F)C2)c1 [Compound 194] | 94 | 3.86 | 42 |  |  |
| C[C@H](c1cc(S(=O)(=O)N2CC[C@H](Nc3ncc4c(n3)N([C@@H]3CCC[C@@H](O)C3)C(=O)C43CC3)[C@H](F)C2)ccc1F)N1CCN(c2ccc3c(N4CCC(=O)NC4=O)nn(C)c3c2)CC1 [Compound 210] | 91 | 4.7 | 47 |  |  |
| C[C@@H](c1cc(S(=O)(=O)N2CC[C@H](Nc3ncc4c(n3)N([C@@H]3CCC[C@@H](O)C3)C(=O)C43CC3)[C@H](F)C2)ccc1F)N1CCN(c2ccc3c(N4CCC(=O)NC4=O)nn(C)c3c2)CC1 [Compound 211] | 88 | 12.1 | 40 |  |  |
